From patent US4797280A, “Antibiotics produced by Kibdelosporangium aridum Shearer gen. nov., sp. nov. ATCC 39323” (SmithKline Beckman Corporation, priority 1986, dated 1989)

What was measured:
Kibdelosporangium aridum = test: Susceptibility of K. aridum to antibiotics, disk diffusion; type: cell-based; details: disk 5 g (so in the source); zones contained a few resistant colonies
Experimental: Susceptibility of K. aridum to antibiotics was examined by placing BBL susceptibility disks on nutrient agar plates seeded with K. aridum as an overlay. Diameters of the zones of inhibition were measured after incubation for one week at 28° C.
Susceptibility to Antibiotics. […] Chlortetracycline ([…]) produced 18 mm zones of inhibition; tetracycline (5 μg) 11-12 mm zones; rifampin (5 μg) 11-15 mm zones; novobiocin (5 μg) 27-28 mm zones. All zones of inhibition contained at least a few resistant colonies.

[1] = test system: rumen fluid from dairy cows; test: Rumen in vitro experiment with dairy cow rumen fluid; details: about 23 hours
Experimental: A similar experiment was carried out using rumen fluid from dairy cows fed a typical dairy cow diet of two parts corn silage and three parts dairy concentrate. Specifically, strained rumen fluid (10 ml) was obtained, from an animal fed two hours earlier, via cannula and was mixed with 10 ml of a nutrient broth comprising a 2:3 mix of corn silage and dairy concentrate. After adding a selected growth promotant, the mixture was incubated at 39° C. for about 23 hours, with oscillation.

rumen inoculum = test: Rumen in vitro model; set-up: species or system steer

CN(C)[C@@H]1C(O)=C(C(N)=O)C(=O)[C@@]2(O)C(O)=C3C(=O)c4c(O)ccc(Cl)c4[C@@](C)(O)[C@H]3C[C@@H]12 [Chlortetracycline]
Zone of inhibition (Kibdelosporangium aridum): 18 mm

CC[C@@H](C(=O)[C@@H](C)[C@@H](O)[C@H](C)CCc1ccc(C)c(O)c1C(=O)O)[C@H]1O[C@](CC)([C@H]2CC[C@](O)(CC)[C@H](C)O2)C[C@@H]1C [Lasalocid]
% PR ([1]; 0.5 ppm): 114% OF CONTROL
ACE ([1]; 0.5 ppm): 95% OF CONTROL
AMO ([1]; 0.5 ppm): 93% OF CONTROL
BUT ([1]; 0.5 ppm): 94% OF CONTROL
DLAC ([1]; 0.5 ppm): 0% OF CONTROL
ETOH ([1]; 0.5 ppm): 0% OF CONTROL
GLU ([1]; 0.5 ppm): 0% OF CONTROL
IBU ([1]; 0.5 ppm): 119% OF CONTROL
IVA ([1]; 0.5 ppm): 102% OF CONTROL
LLAC ([1]; 0.5 ppm): 0% OF CONTROL
LYS ([1]; 0.5 ppm): 106% OF CONTROL
NH--N ([1]; 0.5 ppm): 106% OF CONTROL
PRO ([1]; 0.5 ppm): 112% OF CONTROL
TOTAL ([1]; 0.5 ppm): 99% OF CONTROL
VAL ([1]; 0.5 ppm): 87% OF CONTROL
% PR ([1]; 5 ppm): 136% OF CONTROL
ACE ([1]; 5 ppm): 109% OF CONTROL
AMO ([1]; 5 ppm): 198% OF CONTROL
BUT ([1]; 5 ppm): 79% OF CONTROL
DLAC ([1]; 5 ppm): 0% OF CONTROL
ETOH ([1]; 5 ppm): 0% OF CONTROL
GLU ([1]; 5 ppm): 0% OF CONTROL
IBU ([1]; 5 ppm): 164% OF CONTROL
IVA ([1]; 5 ppm): 91% OF CONTROL
LLAC ([1]; 5 ppm): 0% OF CONTROL
LYS ([1]; 5 ppm): 130% OF CONTROL
NH--N ([1]; 5 ppm): 131% OF CONTROL
PRO ([1]; 5 ppm): 144% OF CONTROL
TOTAL ([1]; 5 ppm): 106% OF CONTROL
VAL ([1]; 5 ppm): 90% OF CONTROL
% PR ([1]; 50 ppm): 186% OF CONTROL
ACE ([1]; 50 ppm): 65% OF CONTROL
AMO ([1]; 50 ppm): 278% OF CONTROL
BUT ([1]; 50 ppm): 62% OF CONTROL
DLAC ([1]; 50 ppm): 0% OF CONTROL
ETOH ([1]; 50 ppm): 0% OF CONTROL
GLU ([1]; 50 ppm): 0% OF CONTROL
IBU ([1]; 50 ppm): 51% OF CONTROL
IVA ([1]; 50 ppm): 41% OF CONTROL
LLAC ([1]; 50 ppm): 0% OF CONTROL
LYS ([1]; 50 ppm): 150% OF CONTROL
NH--N ([1]; 50 ppm): 78% OF CONTROL
PRO ([1]; 50 ppm): 151% OF CONTROL
TOTAL ([1]; 50 ppm): 81% OF CONTROL
VAL ([1]; 50 ppm): 53% OF CONTROL

CC[C@@]1([C@H]2O[C@H]([C@H]3O[C@@](O)(CO)[C@H](C)C[C@@H]3C)C[C@H]2C)CC[C@H]([C@@]2(C)CC[C@]3(C[C@H](O)[C@@H](C)[C@@H]([C@H](C)[C@H](OC)[C@@H](C)C(=O)O)O3)O2)O1 [Monensin Sodium]
% PR ([1]; 0.5 ppm): 117% OF CONTROL
ACE ([1]; 0.5 ppm): 100% OF CONTROL
AMO ([1]; 0.5 ppm): 115% OF CONTROL
BUT ([1]; 0.5 ppm): 94% OF CONTROL
DLAC ([1]; 0.5 ppm): 0% OF CONTROL
ETOH ([1]; 0.5 ppm): 0% OF CONTROL
GLU ([1]; 0.5 ppm): 0% OF CONTROL
IBU ([1]; 0.5 ppm): 104% OF CONTROL
IVA ([1]; 0.5 ppm): 114% OF CONTROL
LLAC ([1]; 0.5 ppm): 0% OF CONTROL
LYS ([1]; 0.5 ppm): 96% OF CONTROL
NH--N ([1]; 0.5 ppm): 137% OF CONTROL
PRO ([1]; 0.5 ppm): 122% OF CONTROL
TOTAL ([1]; 0.5 ppm): 104% OF CONTROL
VAL ([1]; 0.5 ppm): 105% OF CONTROL
% PR ([1]; 5 ppm): 146% OF CONTROL
ACE ([1]; 5 ppm): 102% OF CONTROL
AMO ([1]; 5 ppm): 238% OF CONTROL
BUT ([1]; 5 ppm): 71% OF CONTROL
DLAC ([1]; 5 ppm): 0% OF CONTROL
ETOH ([1]; 5 ppm): 0% OF CONTROL
GLU ([1]; 5 ppm): 0% OF CONTROL
IBU ([1]; 5 ppm): 91% OF CONTROL
IVA ([1]; 5 ppm): 75% OF CONTROL
LLAC ([1]; 5 ppm): 0% OF CONTROL
LYS ([1]; 5 ppm): 95% OF CONTROL
NH--N ([1]; 5 ppm): 105% OF CONTROL
PRO ([1]; 5 ppm): 145% OF CONTROL
TOTAL ([1]; 5 ppm): 99% OF CONTROL
VAL ([1]; 5 ppm): 81% OF CONTROL
% PR ([1]; 50 ppm): 185% OF CONTROL
ACE ([1]; 50 ppm): 76% OF CONTROL
AMO ([1]; 50 ppm): 274% OF CONTROL
BUT ([1]; 50 ppm): 59% OF CONTROL
DLAC ([1]; 50 ppm): 0% OF CONTROL
ETOH ([1]; 50 ppm): 0% OF CONTROL
GLU ([1]; 50 ppm): 0% OF CONTROL
IBU ([1]; 50 ppm): 55% OF CONTROL
IVA ([1]; 50 ppm): 45% OF CONTROL
LLAC ([1]; 50 ppm): 0% OF CONTROL
LYS ([1]; 50 ppm): 120% OF CONTROL
NH--N ([1]; 50 ppm): 84% OF CONTROL
PRO ([1]; 50 ppm): 159% OF CONTROL
TOTAL ([1]; 50 ppm): 86% OF CONTROL
VAL ([1]; 50 ppm): 58% OF CONTROL
% PR (rumen inoculum; 0.5 ppm): 119% OF CONTROL
ACE (rumen inoculum; 0.5 ppm): 78% OF CONTROL
AMO (rumen inoculum; 0.5 ppm): 0% OF CONTROL
BUT (rumen inoculum; 0.5 ppm): 100% OF CONTROL
DLAC (rumen inoculum; 0.5 ppm): 0% OF CONTROL
ETOH (rumen inoculum; 0.5 ppm): 0% OF CONTROL
IBU (rumen inoculum; 0.5 ppm): 138% OF CONTROL
IVA (rumen inoculum; 0.5 ppm): 219% OF CONTROL
LLAC (rumen inoculum; 0.5 ppm): 0% OF CONTROL
PRO (rumen inoculum; 0.5 ppm): 112% OF CONTROL
TOTAL (rumen inoculum; 0.5 ppm): 94% OF CONTROL
UREA (rumen inoculum; 0.5 ppm): 0% OF CONTROL
VAL (rumen inoculum; 0.5 ppm): 101% OF CONTROL
VFA (rumen inoculum; 0.5 ppm): 94 % Control
% PR (rumen inoculum; 5 ppm): 149% OF CONTROL
ACE (rumen inoculum; 5 ppm): 74% OF CONTROL
AMO (rumen inoculum; 5 ppm): 0% OF CONTROL
BUT (rumen inoculum; 5 ppm): 93% OF CONTROL
DLAC (rumen inoculum; 5 ppm): 0% OF CONTROL
ETOH (rumen inoculum; 5 ppm): 0% OF CONTROL
IVA (rumen inoculum; 5 ppm): 265% OF CONTROL
LLAC (rumen inoculum; 5 ppm): 178% OF CONTROL
PRO (rumen inoculum; 5 ppm): 154% OF CONTROL
TOTAL (rumen inoculum; 5 ppm): 104% OF CONTROL
UREA (rumen inoculum; 5 ppm): 0% OF CONTROL
VAL (rumen inoculum; 5 ppm): 99% OF CONTROL
VFA (rumen inoculum; 5 ppm): 104 % Control
% PR (rumen inoculum; 50 ppm): 156% OF CONTROL
ACE (rumen inoculum; 50 ppm): 73% OF CONTROL
AMO (rumen inoculum; 50 ppm): 0% OF CONTROL
BUT (rumen inoculum; 50 ppm): 98% OF CONTROL
DLAC (rumen inoculum; 50 ppm): 0% OF CONTROL
ETOH (rumen inoculum; 50 ppm): 0% OF CONTROL
IBU (rumen inoculum; 50 ppm): 196% OF CONTROL
IVA (rumen inoculum; 50 ppm): 278% OF CONTROL
LLAC (rumen inoculum; 50 ppm): 999% OF CONTROL
PRO (rumen inoculum; 50 ppm): 171% OF CONTROL
UREA (rumen inoculum; 50 ppm): 0% OF CONTROL
VAL (rumen inoculum; 50 ppm): 107% OF CONTROL
